pIC50: −log10 of the molar value. Counter-ions that a name gives are not always drawn.
Legend:
[1] = target: T1, [3H]-emopamil binding site (Cavia porcellus, UniProt Q60490); test: 3H-Emopamil binding to guinea pig liver membranes; conditions: displacement of 0.96 nM (-)-3H-emopamil, 60 minutes at 37° C.
T1 construct: from tissue; host or cells: guinea pig liver membranes
T1 sequence (Q60490 1-229): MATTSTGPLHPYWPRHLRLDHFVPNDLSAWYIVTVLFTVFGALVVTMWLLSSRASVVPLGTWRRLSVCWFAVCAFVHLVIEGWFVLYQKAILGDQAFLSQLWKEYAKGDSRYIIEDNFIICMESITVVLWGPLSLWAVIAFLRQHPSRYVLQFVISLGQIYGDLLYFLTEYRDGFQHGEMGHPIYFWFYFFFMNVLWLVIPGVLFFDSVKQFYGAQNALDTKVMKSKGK
Method: ^3H-Emopamil Binding to Guinea Pig Liver Membranes
The method of (−)-^3H-emopamil binding was a modification of Zech, C., Staudinger R., Mühlbacher, J. and Glossmann, H. Novel sites for phenylalkylamines: characterization of a sodium-sensitive drug receptor with (−)-^3H-emopamil. Eur. J. Pharm. 208: 119-130, 1991.
The reaction mixture contained:
Assay buffer: 10 mM Tris-HCl, 0.1 mM phenylmethylsulfonyl fluoride (PMSF), 0.2% bovine serum albumin (BSA), pH 7.4 at 4° C.
Radioligand: 0.96 nM (−)-^3H-emopamil (Amersham).
Guinea pig liver membranes: 40 mg/mL original wet weight.
This mixture was incubated for 60 minutes at 37° C. The incubation was terminated by filtering with a Brandel Cell Harvester over Whatman GF/C filters that had been soaked for at least 120 minutes in 0.3% polyethylenimine (PEI) and washed three times with 5 mL of wash buffer containing 10 mM Tris-HCl, 10 mM MgCl2, 0.2% BSA, pH 7.4 at 25° C. Specific binding was defined with 10 μM emopamil. […]
Guinea-pig liver membrane preparation: Male guinea pigs were sacrificed by CO2 asphyxiation with dry ice. The livers were quickly excised and weighed and rinsed in membrane preparation buffer containing 10 mM Hepes, 1 mM Tris base-EDTA, 250 mM […] Teflon-glass homogenizer with three strokes on ice. […]

[2] = tested on: L-type voltage sensitive calcium channels (3H-D888 binding site); test: 3H-D-888 binding to rat brain cortical membranes; conditions: displacement of 3H-D888, rat cortical membranes, 60 minutes at 25° C.
Method: ^3H-D-888 Binding to Rat Brain Cortical Membranes
The method of ^3H-D-888 binding was a modification of Reynolds, I. J., Snowman, A. M. and Synder, S. H. (−)-[^3H] Desmethoxyverapamil labels multiple calcium channel modular receptors in brain and skeletal muscle membranes: differentiation by temperature and dihydropyridines. J. Pharmacol. Exp. Ther. 237: no.3, 731-738, 1986.
The assay tubes contained the following: assay buffer: 50 mM Hepes, 0.2% BSA, pH 7.4 radioligand: 1 πM ^3H-D888 (Amersham) rat cortical membranes: 6 mg/ml original wet weight
This mixture was incubated for 60 minutes at 25° C. The assay was terminated by filtering with a Brandel Cell Harvester over Whatman GF/C filters that had been soaked for at least 120 minutes in 0.3% polyethylenamine (PEI) and washed three times with 5 mL of wash buffer containing 20 mM Hepes, 20 mM MgCl2, pH 7.4. Specific binding was measured with 10 μM methoxyverapamil (D-600). This assay was used to determine in vitro selectivity of compounds vs. L-type voltage sensitive calcium channels, i.e high affinity for the ^3H-D888 binding site would show a lack of selectivity. For example the compound of Example 4 gave a value of about 19.000 nM in this test.
Rat brain cortical membrane preparation: Male Sprague-Dawley Rats were sacrificed by decapitation and the brains were quickly excised. […]

Compound	melting point	pIC50 [1]	value in 3H-D-888 binding test (in vitro selectivity vs. L-type VSCC) [2]
COc1cccc2c1CCCC2N1CCCN(C)CC1 (centres unmarked) (as salt: hydrochloride) [Example 7, 1-Methyl-4-(5-methoxy-1,2,3,4-tetrahydro-1-naphthalenyl)homopiperazine]	172.2 to 176.6 °C		
CC(C)N1CCCN(C2CCCc3ccccc32)CC1 (centres unmarked) (as salt: hydrochloride) [Example 13, 1-Isopropyl-4-(1,2,3,4-tetrahydro-1-naphthalenyl)homopiperazine]	149.5 to 151 °C		
CN1CCCN(C2CCCc3ccccc32)CC1 (centres unmarked) (as salt: maleate) [Example 1, 1-Methyl-4-(1,2,3,4-tetrahydro-1-naphthalenyl)homopiperazine]	125.4 to 126.3 °C		
c1ccc2c(c1)CCCC2N1CCCNCC1 (centres unmarked) (as salt: salt) [Example 2, N-(1,2,3,4-Tetrahydro-1-naphthalenyl)homopiperazine]	107 to 109.4 °C		
CN1CCCN(C2CCCc3cc(F)ccc32)CC1 (centres unmarked) (as salt: salt) [Example 16, 1-Methyl-4-(6-fluoro-1,2,3,4-tetrahydro-1-naphthalenyl)homopiperazine]	78.8 to 79.5 °C		
CCc1ccc2c(c1)CCCC2N1CCCN(C)CC1 (centres unmarked) (as salt: salt) [Example 25, 1-Methyl-4-(6-ethyl-1,2,3,4-tetrahydro-1-naphthalenyl)homopiperazine]	131.5 to 132.8 °C		
CN1CCCN([C@H]2CCCc3ccccc32)CC1 [Example 4, S(+) 1-Methyl-4-(1,2,3,4-tetrahydro-1-naphthalenyl)homopiperazine]		7.77	about 19.000 nM

From patent US6417183B1, “1,4-diazacycloheptane derivatives” (Astrazenela UK Limited, priority 1997, dated 2002)
